# Assay results reported in patent publication US20120014917A1, “METHODS OF TREATING HIV PATIENTS WITH ANTI-FIBROTICS” (University of Minnesota, priority 2009, published 2012).
# Entries after “also recorded” stand apart in the source; their conditions may differ.
# Legend:
# SIV infection = experiment: 24-week study of pirfenidone plus ARV versus ARV only in SIV infection (FIG. 6 protocol, Example 4); assay type: in vivo
# Experimental: FIG. 6 depicts a study protocol wherein pirfenidone is administered from Week −2 (relative to SIV infection) through the end of the study and co-administration of antiretroviral therapy is initiated at Week 8 and continued through the end of the study.
# This example describes a 24-week study according to the protocol depicted in FIG. 6. In short, there were two groups in the study. The first group (group C as depicted in FIG. 6) received only ARV beginning at Week 8 (relative to SIV infection) of the study and continuing through week 24. The second group (group D as depicted in FIG. 6) received pirfenidone beginning at week −2 of the study and ARV beginning at Week 8. Both pirfenidone and ARV were then co-administered through Week 24 of the study. Tissues were biopsied at Week −2. Additional biopsies were conducted at Weeks 12, 16 and 24 (after sacrifice of the animal).
# [1] = tested on: TNF-α, TGF-β1, bFGF, PDGF, and EGF; settings: reported in Zhang et al. 1998; Cain et al. 1998; cited from earlier work
# SIV MAC239 = experiment: Pirfenidone in SIV-infected non-human primate model (FIG. 1 protocol, Example 2); assay type: in vivo
# Source text: Venous blood will be used to measure CD4^+ cell count by flow cytometry. Tissue biopsies (LN and ileal GALT samples) are divided; one portion will be processed by immunohistochemical staining for quantitative image analysis to determine the absolute size of the total CD4^+ cell population, and the remaining portion will be processed by flow cytometry to proportionately quantify CD4^+ cells (total, naïve, central memory [CM], and effector memory [EM] T cells). These methods have been published elsewhere [Schacker et al., 2006, Clinical and Vaccine Immunology 13:556-60; Schacker et al., 2005, AIDS 19:2169-71; Schacker et al., 2002, J Clin Invest 110:1133-9; Schacker J Infect Dis 186:1092-7]. For flow cytometry, a portion of LN tissue and GALT will be placed on ice and CD4^+ cells are isolated within 24 hours by gently separating the cells from surrounding tissue by using a mesh screen. One million cells are washed once in FACS wash (PBS supplemented with 0.1% sodium azide and 2% bovine serum albumin; Sigma). After aspiration of the supernatant, cells will be stained with peridin clorophylla protein-conjugated CD4, allophycocyanin conjugated CD8, phycoerythrin conjugated CD27, and fluorescein isothiocyanate-conjugated CD45RO (all BD Pharmingen), and incubated for 30 min at 4° C., followed by another wash. Cells will be fixed with 1% paraformaldahyde (Electron Microscopy Sciences) and analyzed on a FACS Calibur flow cytometer (BD Pharmingen). Lymphocytes will be gated on the basis of characteristic forward and side scatter properties, followed by separation into CD4^+ T cells and CD8^+ T cells on the basis of expression of CD4 and CD8. Naive T cells are classified by expression of CD27 without expression of CD45RO, as described elsewhere [Brenchley et al., 2003, Blood 101:2711-20]. CM T cells will be classified by coexpression of CD27 and CD45RO, and EM T cells are classified by lack of CD27 expression.
# To quantify the total CD4^+ T cell population in each compartment, 4-μm sections will be prepared from the fixed tissues and stained with antibody for CD4 by using either clone 1F6 (Ventana Medical Systems) or clone 4B12 (Neomarkers; Lab Vision). Images will be captured to quantify the percentage of tissue area occupied by CD4 by using PHOTOSHOP CS2, version 9.0 imaging software (ADOBE SYSTEMS, Inc.) with plug-ins from REINDEER GRAPHICS. Inc.
# To quantify collagen in the TZ, methods similar to those previously published can be used [Schacker et al., 2002, J. Clin. Investig. 110:1133-1139]. Sections (4 μm) are stained using a modified trichrome stain to identify collagen fibers, and approximately 18 images from the TZ are captured and transported into PHOTOSHOP CS imaging software (ADOBE SYSTEMS, Inc.). Image analysis tools from REINDEER GRAPHICS, Inc. (Asheville, N.C.) may provide better sensitivity for isolating collagen fibers to quantify the percent area occupied by collagen.
# In this study, six animals were divided into two groups of three animals each. One group received pirfenidone for 2 weeks and then was infected with SIV MAC239. […] Pirfenidone was continued for 12 weeks following infection and then discontinued for 12 weeks (i.e., week 24) and then restarted. Thus, the pirfenidone-treated group would receive pirfenidone from week −2 to week 12 (14 weeks) and from week 24 to week 36 (12 weeks) for a […]. […] The dose of pirfenidone used was 200 mg/kg orally, twice daily (BID) for a total daily dose of 400 mg/kg/day. This corresponds to a human dose of approximately 6.5 mg/kg BID.
# A diagram of the protocol can be seen in FIG. 1. Lymph node and rectal biopsy samples were collected at day 0 and again at weeks 4, 12, 24, and 36 after infection. […]
# [2] = tested on: collagen expression; matrix metalloproteinases (MMPs) and TIMPs; settings: reported; cited from earlier work
structure (smiles),measurement,setting,value
Cc1ccc(=O)n(-c2ccccc2)c1 [pirfenidone],"proportion of the TZ occupied by collagen (composite, FIG. 12A)",SIV infection; ARV + pirfenidone arm vs ARV only,lower
same,increase in the TZ area staining positive for CD4+ T cells upon initiation of ARV,"SIV infection; animals treated with pirfenidone vs ARV only, FIG. 11D",greater increase
same,rate of change in CD4+ area in TZ,"SIV infection; co-administration of pirfenidone and ARV relative to ARV alone, FIG. 12B",improves
same,absolute number of naïve CD4 T cells of the TZ,"SIV infection; group D (pirfenidone + ARV) relative to group C (ARV only), week 16 through week 24, FIG. 9",increase
same,number of CD4 T cells in the TZ (TZ area staining positive for CD4+ T cells),"SIV infection; group D (pirfenidone + ARV) relative to group C (ARV only), week 16 through week 24, FIGS. 8, 11D",increased; also recorded: more of the TZ stains positive for CD4^+ T cells
same,percentage of CD4 T cells in GALT,"SIV infection; group D (pirfenidone + ARV) relative to group C (ARV only), week 24, FIG. 10",increased
same,percentage area of the T cell zone with collagen,"SIV infection; group D (pirfenidone from week -2 + ARV from week 8) relative to group C (ARV only), FIGS. 7, 11B",significantly lower; also recorded: significant reduction
same,"excessive biosynthesis or release of various cytokines such as TNF-α, TGF-β1, bFGF, PDGF, and EGF",[1],inhibit
same,"tolerability, adverse effects or toxicity",SIV MAC239; 200 mg/kg orally BID (400 mg/kg/day),well-tolerated without adverse effects or toxicity
same,peripheral blood CD4 T cell count,"SIV MAC239; pirfenidone 200 mg/kg BID orally vs animals not given pirfenidone, FIG. 3A",no significant change; also recorded: no obvious difference
same,percent CD4 (CD4%) in peripheral blood,"SIV MAC239; pirfenidone 200 mg/kg BID orally vs animals not given pirfenidone, FIG. 3B",no significant change; also recorded: no obvious difference
same,plasma SIV RNA load (viral load),"SIV MAC239; pirfenidone 200 mg/kg BID orally vs animals not given pirfenidone, FIG. 3C",no significant change; also recorded: no obvious difference
same,fibrosis (percent area of T cell zone occupied by collagen) in lymph nodes,"SIV MAC239; pirfenidone 200 mg/kg BID vs animals not given pirfenidone, FIGS. 4, 5A, 11A",decreased; also recorded: significant reduction; also recorded: less fibrosis; also recorded: significant difference
same,size of the CD4+ T cell population (area staining positive for CD4) in lymph node T cell zone,"SIV MAC239; pirfenidone 200 mg/kg BID vs animals not given pirfenidone, FIGS. 4, 5B, 11C",increased; also recorded: more of the TZ stains positive for CD4^+ T cells; also recorded: higher CD4 numbers; also recorded: significant difference
same,"proportion of the TZ occupied by collagen (composite, FIG. 12A)",SIV MAC239; pirfenidone only arm vs no treatment,lower
same,CD4 population in Peyer's Patches,"SIV MAC239; pirfenidone vs control animals, FIG. 4D",higher
same,balance of matrix metalloproteinases (MMPs) and their endogenous inhibitors (TIMPs),[2],alter
same,collagen expression,[2],decrease
